Laboratory results as given in PubChem BioAssay (NCI).
Values joined by “and” are separate entries in the source; they are usually repeats but may differ in a detail not shown here. Identical values can stand only once.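 Grown in 96-well plates, cells were treated for 48 hours with each compound at five concentrations. Insufficient inhibition: endpoint recorded as highest concentration tested. Abbreviation: GI50, concentration required for 50% inhibition of growth. At the TGI there is no net growth.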

Experiments:
Assay in all cases: NCI anticancer screen, dose series, 48 h
CAKI-1 renal = system: CAKI-1 renal
MALME-3M melanoma = system: MALME-3M melanoma
RXF 393 renal = system: RXF 393 renal
HOP-92 NSCLC = system: HOP-92 NSCLC
HOP-62 NSCLC = system: HOP-62 NSCLC
MOLT-4 leukemia = system: MOLT-4 leukemia
M14 melanoma = system: M14 melanoma
K-562 leukemia = system: K-562 leukemia
NCI-H460 lung = system: NCI-H460 lung
T-47D breast = system: T-47D breast

| Compound | TGI (CAKI-1 renal) | TGI (MALME-3M melanoma) [µM] | TGI (RXF 393 renal) | TGI (HOP-92 NSCLC) | TGI (HOP-62 NSCLC) [µM] | TGI (MOLT-4 leukemia) | TGI (M14 melanoma) | TGI (K-562 leukemia) | TGI (NCI-H460 lung) | GI50 (CAKI-1 renal) | GI50 (MALME-3M melanoma) [µM] | GI50 (HOP-92 NSCLC) | GI50 (HOP-62 NSCLC) | GI50 (MOLT-4 leukemia) | GI50 (M14 melanoma) | GI50 (K-562 leukemia) | GI50 (NCI-H460 lung) | TGI (T-47D breast) | GI50 (RXF 393 renal) [µM] | GI50 (T-47D breast) |
| --- | --- | --- | --- | --- | --- | --- | --- | --- | --- | --- | --- | --- | --- | --- | --- | --- | --- | --- | --- | --- |
| O=C(CCC(=O)Nc1ccccc1C(F)(F)F)N/N=C1\C(=N\NC(=O)CCC(=O)Nc2ccccc2C(F)(F)F)C(c2ccc3c(c2)OCO3)Oc2ccccc21 (stereo not given) | 98 µM | > 100 | > 71.7 µM | > 87.1 µM | 56.3 | > 100 µM | > 100 µM | > 100 µM | > 100 µM |  |  |  |  |  |  |  |  |  |  |  |
| COc1cccc(/C=N/[N-]C(=O)c2ccncc2)c1[O-].[Mn+2].[OH3+] | > 100 µM | > 100 |  | > 100 µM | > 100 | > 100 µM | 52.4 µM | 9.69 µM | > 100 µM | 8.97 µM | 25.5 | 24.7 µM | 5.86 µM | 3.24 µM | 7.96 µM | 2.9 µM | 4.34 µM |  |  |  |
| CCc1cccc(C(C)C)c1NC(=O)CC1Sc2ccccc2NC1=O (stereo not given) | > 100 µM | > 100 | 96.3 µM | 95.3 µM | > 100 | 92.1 µM | > 100 µM | > 100 µM | > 100 µM |  |  |  |  |  |  |  |  |  |  |  |
| Cc1noc2cccc(O)c12 | > 100 µM | > 100 | > 100 µM | > 100 µM | > 100 | > 100 µM | > 100 µM | > 100 µM | > 100 µM |  |  |  |  |  |  |  |  |  |  |  |
| Cc1ccccc1NC(=O)CC1C(=O)Nc2ccccc2S1=O (stereo not given) | > 100 µM | > 100 | 51.8 µM | > 100 µM |  | > 100 µM | > 100 µM | > 100 µM | > 100 µM |  |  |  |  |  |  |  |  |  |  |  |
| NC1=NN(c2ccccc2)C(=O)C1C(=O)C(=O)Nc1ccc(Cl)cc1 (stereo not given) | > 100 µM | > 100 | > 100 µM | > 100 µM | > 100 | > 100 µM | > 100 µM | > 100 µM | > 100 µM |  |  |  |  |  |  |  |  |  |  |  |
| CCCCCC/C=C/C#CCCCCCCCC(=O)O | > 100 µM | > 100 |  | > 100 µM |  | > 100 µM | > 100 µM | > 100 µM | > 100 µM |  |  |  |  |  |  |  |  | > 100 µM |  |  |
| NC(Cc1ccccc1)C(=O)OCN1C(=O)C2C3C=CC(C2C1=O)C1C2C(=O)N(COC(=O)C(N)Cc4ccccc4)C(=O)C2C31 (stereo not given) | > 100 µM |  | 41.7 µM and 39.3 µM | 95.4 µM and > 100 µM | > 100 | 52 µM and 42.9 µM | 35 µM and 33.9 µM | 63.2 µM and > 100 µM | 27.4 µM and 30.8 µM | 37.8 µM and 77.2 µM |  |  |  | 24.3 µM and 12 µM |  |  |  |  |  |  |
| C=C1CCC2CC1C(C(=O)c1c[nH]c3ccccc13)=NC2(C)C (stereo not given) | > 100 µM | > 100 |  |  | > 100 | > 100 µM | > 100 µM | > 100 µM | > 100 µM |  |  |  |  |  |  |  |  | > 100 µM |  |  |
| C[C@H]1CCC/C=C/C2CC(OC(=O)CN(C)C)CC2C(OC(=O)CN(C)C)/C=C/C(=O)O1 (stereo not given in full) | 7.69 µM | 0.371 | 0.314 µM | 12.5 µM | 23.2 | 5.44 µM | 4.65 µM | > 100 µM | 31.2 µM | 0.38 µM | 0.171 | 1.69 µM | 2.51 µM | 0.357 µM | 0.178 µM | 3.29 µM | 1.09 µM |  | 0.0972 |  |
| CC(C)N(C(=O)C12C3C4C1C1C2C3C41C(=O)C(C)(C)C)C(C)C (stereo not given) | > 100 µM | > 100 |  |  | > 100 | > 100 µM | > 100 µM | > 100 µM |  |  |  |  |  |  |  |  |  |  |  |  |
| O=C(NC1CCN(Cc2ccccc2)CC1)c1cc(-c2cccnc2)nc2ccc(Cl)cc12 | 19.1 µM | > 100 | 19.4 µM |  | 31.5 | 9.82 µM |  | 76.8 µM | 21.7 µM | 3.24 µM | 7.92 |  | 11.8 µM | 3.05 µM |  | 3.43 µM | 4.24 µM | 53.1 µM | 4.18 | 3.7 µM |
| C#CCN(N=O)C(=O)NC(CCCCNC(=O)OCc1ccccc1)C(=O)OCc1ccccc1 (stereo not given) |  | 65.1 | > 100 µM | 32.6 µM | > 100 | 41.5 µM | 56.6 µM | 50.5 µM | > 100 µM |  |  |  |  |  |  |  |  |  |  |  |
| CC(Oc1cc2oc(=O)cc(-c3ccccc3)c2cc1Cl)C(=O)O (stereo not given) | > 100 µM | > 100 | > 100 µM | > 100 µM | > 100 | > 100 µM | > 100 µM | > 100 µM | > 100 µM |  |  |  |  |  |  |  |  |  |  |  |
| COC(=O)C(=O)C(CC(=O)Nc1cc(Cl)ccc1Cl)C(=O)OC (stereo not given) | > 100 µM | > 100 | > 100 µM | > 100 µM | > 100 | > 100 µM | > 100 µM | > 100 µM | > 100 µM |  |  |  |  |  |  |  |  |  |  |  |
| CC1=C(C(=O)Nc2cccc(Cl)c2)C(c2ccccc2O)C(C(=O)Nc2cccc(Cl)c2)=C(C)N1 | 43.3 µM | 38.6 | 31.9 µM | 37 µM | 39.8 | 59.2 µM | 31.7 µM | 53.7 µM | 46.4 µM |  |  |  |  |  |  |  |  |  |  |  |
| CCCCCCCCCCC(=O)CCCCCCC(=O)O | 81.5 µM | 45 | 91.5 µM | 35.8 µM | 68.8 | 36.8 µM | 47.9 µM | 26.9 µM | 30.9 µM |  |  |  |  |  |  |  |  |  |  |  |
| N#CCc1c(F)c(F)c(F)c(F)c1F | > 100 µM | > 100 | > 100 µM |  | > 100 | > 100 µM | > 100 µM | > 100 µM |  |  |  |  |  |  |  |  |  | > 100 µM |  |  |
| Nc1n[n+]([O-])c2cc([N+](=O)[O-])ccc2[n+]1[O-] | 20.6 µM |  |  |  | 22.3 | 4.16 µM | 20.4 µM | 11.7 µM | 16.1 µM |  |  |  |  |  |  |  |  | 18.6 µM |  |  |
| N#CCCN(CCC#N)c1ccc(/C=C(/NC(=O)c2cc([N+](=O)[O-])ccc2Cl)C(=O)N=[N+]=[N-])cc1 | > 100 µM | > 100 | > 100 µM |  | > 100 | > 100 µM | > 100 µM | > 100 µM | > 100 µM |  |  |  |  |  |  |  |  |  |  |  |
| O=C(CCc1nc(=S)[nH][nH]1)Nc1cc(Cl)ccc1Cl | > 100 µM | > 100 |  | > 100 µM | > 100 | > 100 µM | > 100 µM | > 100 µM | > 100 µM |  |  |  |  |  |  |  |  |  |  |  |
| Cc1ccc2c(c1)[n+](=O)c(C(=O)c1cccs1)c(C(F)(F)F)n2[O-] | 3.43 µM and 4.07 µM |  |  | 11.5 µM and 15.3 µM |  | 50 µM | 50 µM and 26.2 µM | 50 µM and 19.5 µM |  | 0.856 µM and 0.395 µM |  | 1.63 µM and 1.78 µM | 2.39 µM and 0.689 µM | 4.12 µM | 2.99 µM and 4.32 µM | 1.01 µM and 0.466 µM | 0.616 µM and 0.359 µM | 9.38 µM and 7.9 µM |  | 1.55 µM and 0.183 µM |
